These results are taken from patent US8415351B2 (priority 2007, dated 2013).

The test system of experiment [1] is genotype 1a-H77 subgenomic replicon cell line. Nature of the experiment: microbe, parasite or virus in culture. The experiment is classed as cell-based, HCV. Conditions: Hepatitis C virus, read-out: EC50 1a.
Experiment [2] relates to genotype 1b-Con1 subgenomic replicon cell line. Nature of the experiment: microbe, parasite or virus in culture. The format is cell-based, HCV. As to conditions: Hepatitis C virus, read-out: EC50 1b.

Where only a bound is given, the exact number is not on record here.

Broadly, the EC50 is the concentration giving half of the maximal effect. For `COc1c(/C=C/c2ccc(NS(C)(=O)=O)cc2C(=O)N2CCOCC2)cc(-n2ccc(=O)[nH]c2=O)cc1C(C)(C)C` [IB-L1-1.23, (E)-N-(4-(3-tert-butyl-5-(2,4-dioxo-3,4-dihydropyrimidin-1(2H)-yl)-2-methoxystyryl)-3-(morpholine-4-carbonyl)phenyl)methanesulfonamide], the EC50 in experiment [1] is 100 to 1000 nM; in experiment [2] it was less than 10 nM.

Turning to `COCCN(C)C(=O)c1cc(NS(C)(=O)=O)ccc1/C=C/c1cc(-n2ccc(=O)[nH]c2=O)cc(C(C)(C)C)c1OC` [IB-L1-1.24, 2-{(E)-2-[3-tert-butyl-5-(2,4-dioxo-3,4-dihydro-2H-pyrimidin-1-yl)-2-methoxy-phenyl]-vinyl}-5-methanesulfonylamino-N-(2-methoxy-ethyl)-N-methyl-benzamide], the half-maximal effective concentration (EC50) in experiment [1] is 10 to 100 nM; in experiment [2], less than 10 nM.

In the case of `COc1c(/C=C/c2ccc(NS(C)(=O)=O)cc2COC(C)C)cc(-n2ccc(=O)[nH]c2=O)cc1C(C)(C)C` [IB-L1-1.25, N-(4-{(E)-2-[3-tert-butyl-5-(2,4-dioxo-3,4-dihydro-2H-pyrimidin-1-yl)-2-methoxy-phenyl]-vinyl}-3-isopropoxymethyl-phenyl)-methanesulfonamide], the values for the concentration giving a half-maximal response (EC50) in experiment [1] and in experiment [2] were 10 to 100 nM and less than 10 nM, respectively.

For the compound `COc1c(/C=C/c2ccc(NS(C)(=O)=O)cc2-c2ncco2)cc(-n2ccc(=O)[nH]c2=O)cc1C(C)(C)C` [IB-L1-1.26, (E)-N-(4-(3-tert-butyl-5-(2,4-dioxo-3,4-dihydropyrimidin-1(2H)-yl)-2-methoxystyryl)-3-(oxazol-2-yl)phenyl)methanesulfonamide], the half-maximal effective concentration (EC50) in experiment [1] is 10 to 100 nM; in experiment [2], less than 10 nM.

With `COc1c(/C=C/c2ccc(NS(C)(=O)=O)cc2C(=O)N2CCCC2)cc(-n2ccc(=O)[nH]c2=O)cc1C(C)(C)C` [IB-L1-1.27, N-[4-{(E)-2-[3-tert-butyl-5-(2,4-dioxo-3,4-dihydro-2H-pyrimidin-1-yl)-2-methoxy-phenyl]-vinyl}-3-(pyrrolidine-1-carbonyl)-phenyl]-methanesulfonamide], the EC50 in experiment [1] was 10 to 100 nM; in experiment [2], less than 10 nM.

Regarding `COc1c(/C=C/c2ccc(NS(C)(=O)=O)cc2N)cc(-n2ccc(=O)[nH]c2=O)cc1C(C)(C)C` [IB-L1-1.28, (E)-N-(3-amino-4-(3-tert-butyl-5-(2,4-dioxo-3,4-dihydropyrimidin-1(2H)-yl)-2-methoxystyryl)phenyl)methanesulfonamide], the concentration giving a half-maximal response (EC50) in experiment [1] and in experiment [2] was less than 10 nM in each case.

Consider `COc1c(/C=C/c2ccc(NS(C)(=O)=O)cc2CN2CC(O)C2)cc(-n2ccc(=O)[nH]c2=O)cc1C(C)(C)C` [IB-L1-1.29, N-[4-{(E)-2-[3-tert-butyl-5-(2,4-dioxo-3,4-dihydro-2H-pyrimidin-1-yl)-2-methoxy-phenyl]-vinyl}-3-(3-hydroxy-azetidin-1-ylmethyl)-phenyl]-methanesulfonamide], for which the EC50 in experiment [1] and in experiment [2] was 100 to 1000 nM each time.

Consider `CCOc1c(/C=C/c2ccc(NS(C)(=O)=O)cc2)cc(-n2ccc(=O)[nH]c2=O)cc1C(C)(C)C` [IB-L1-1.30, (E)-N-(4-(3-tert-butyl-5-(2,4-dioxo-3,4-dihydropyrimidin-1(2H)-yl)-2-ethoxystyryl)phenyl)methanesulfonamide], for which the EC50 in experiment [1] fell in the range of 100 to 1000 nM; in experiment [2] it was 10 to 100 nM.

Turning to `COc1c(/C=C/c2ccc(NS(C)(=O)=O)cc2CNCCC(C)C)cc(-n2ccc(=O)[nH]c2=O)cc1C(C)(C)C` [IB-L1-1.31, (E)-N-(4-(3-tert-butyl-5-(2,4-dioxo-3,4-dihydropyrimidin-1(2H)-yl)-2-methoxystyryl)-3-((isopentylamino)methyl)phenyl)methanesulfonamide], the EC50 in experiment [1] and in experiment [2] was greater than 1000 nM in each case.

Consider `COc1c(/C=C/c2ccc(NS(C)(=O)=O)cc2NC(=O)OC(C)(C)C)cc(-n2ccc(=O)[nH]c2=O)cc1C(C)(C)C` [IB-L1-1.32, (E)-tert-butyl 2-(3-tert-butyl-5-(2,4-dioxo-3,4-dihydropyrimidin-1(2H)-yl)-2-methoxystyryl)-5-(methylsulfonamido)phenylcarbamate], for which the half-maximal effective concentration (EC50) in experiment [1] is 100 to 1000 nM; in experiment [2], 10 to 100 nM.
